Laboratory results as given in BindingDB's records for doi:10.1021/jm800571m (The Scripps Research Institute, 2008).
pKd: −log10 of the molar value.

Target: T1, Adenosine 5'-phosphosulfate reductase (Mycobacterium tuberculosis (strain CDC 1551 / Oshkosh), UniProt P9WIK2)
T1 sequence (P9WIK2 whole entry): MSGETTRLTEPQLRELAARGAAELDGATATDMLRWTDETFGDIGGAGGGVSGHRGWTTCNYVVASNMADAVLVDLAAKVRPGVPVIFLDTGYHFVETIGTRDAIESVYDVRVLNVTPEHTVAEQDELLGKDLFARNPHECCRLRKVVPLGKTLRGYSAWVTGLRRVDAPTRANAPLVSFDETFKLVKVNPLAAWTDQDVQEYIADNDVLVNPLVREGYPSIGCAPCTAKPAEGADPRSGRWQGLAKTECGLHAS
Test: Determination of Dissociation Constant (Kd)
Details: pH 7.5; 30 °C
Procedure: Values of Ki were determined from the dependence of the observed rate constant (kobs) on inhibitor concentration. […] A range of inhibitor concentrations was employed from at least 5-fold below to 10-fold above the inhibition constant. Nonlinear least-squares fits of the equation for competitive inhibition gave excellent fits in all cases, and the standard error was typically less than 15%.

Compound: CC(=O)[C@H]1CC[C@@H]2[C@]1(C)CC=C1[C@]23C=C[C@]2(C[C@@H](O)CC[C@]12C)C(C(=O)O)C3C(=O)O (stereo partly drawn) [(1R,2R,5S,6S,10S,13S,15R)-5-acetyl-13-hydroxy-6,10-dimethylpentacyclo[13.2.2.0^{1,9}.0^{2,6}.0^{10,15}]nonadeca-8,18-diene-16,17-dicarboxylic acid]
- pKd: 3.90

Compound: O=C(O)CSc1nnc2c3ccccc3c3ccccc3c2n1 [2-(1,2,4-triazatriphenylen-3-ylsulfanyl)acetic acid]
- pKd: 4.33
